Results from patent US20250163074A1, “CDK Inhibitors And Their Use As Pharmaceuticals” (Prelude Therapeutics Incorporated, priority 2020, published 2025).
Read-outs that look alike come from different tables or passages of the source.

What was measured:
[1] = test system: MCF7 adenocarcinoma cell line; experiment: Cell proliferation studies in MCF7 cells (ATP-Lite); assay type: cell-based; conditions: 10 days incubation, cell viability by ATP-Lite luminescence, read-out: PROLIFERATION_CTG_MCF7 IC50
Summary of the method: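 MCF7 cells, seeded at 100 or 200 cells/well, were exposed for 10 days at 37 °C to a 9-point, 3-fold dilution series in quadruplicate, with media exchange and re-dosing on day 5. Viability was read by ATP-Lite luminescence, normalized to background and DMSO, and fitted for IC50.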

[2] = target: CDK6/Cyclin D1 (Homo sapiens (Human), UniProt Q00534); experiment: CDK6/CyclinD1 enzymatic activity assay (TR-FRET); assay type: biochemical; conditions: CDK6/Cyclin D1 1 nM, ATP 250 μM, read-out: CDK6_D1 IC50
Summary of the method: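 Insect-cell-expressed CDK6/Cyclin D1 (1 nM) phosphorylated ULight-4E-BP1 (100 nM) with 250 μM ATP in HEPES pH 7.4 buffer. After 20 min compound preincubation, reactions were started with 10 mM MgCl2 and run 60 min at 37 °C. EDTA-quenched samples were read by TR-FRET with Eu-anti-P-4E-BP1; IC50 from 9-dose 4-parameter fits.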

[3] = Brain-to-plasma ratio determination in Sprague-Dawley rats; assay type: in vivo; conditions: male Sprague-Dawley rats, four hours after a single oral dose (3, 4, 5, or 10 mg/kg); for Kp at 4 h: rat
Description: Example B: Brain-to-Plasma Ratio Determination in Sprague-Dawley Rats
The brain-to-plasma ratio (Kp) was determined in male Sprague-Dawley rats (7-9 weeks old) four hours after a single oral dose. Rats were acclimated and given free access to standard rodent chow and water throughout the entire study. Test articles were formulated as a solution at 0.3, 0.4, 0.5, or 1.0 mg/mL in a vehicle comprised of 10:15:75 (v:v:v) dimethylacetamide (DMA):Solutol HS15:water and delivered orally at a rate of 10 mL/kg to three rats to achieve final doses of 3, 4, 5, or 10 mg/kg, respectively. At 4 hours post-dose, blood samples were collected via jugular vein cannula into tubes containing K2EDTA as the anticoagulant and stored on ice. Blood samples were then centrifuged at 4° C. at 6000 rpm for 5 minutes, and the resulting plasma was placed into tubes and stored frozen at −80° C. until analysis. Whole brain samples were also collected at 4 hours post-dose. The weight of each brain was measured and recorded, and samples were immediately stored on dry ice. Brain samples were then transferred to storage at −80° C. until analysis.
Prior to analysis, brain samples were combined with water (4 mL/1 gram of brain) and homogenized. Prior to injection, plasma and brain homogenate samples and standards were prepared for analysis by precipitation with acetonitrile or 1:1 (v:v) methanol:acetonitrile. Samples were then thoroughly mixed, centrifuged at 4000 rpm for 15 minutes, and the resulting supernatant was transferred for analysis. Test article concentrations in plasma and brain homogenate were then determined by LC-MS/MS and quantified against calibration standards prepared to known concentrations in matched blank (analyte-free) biological matrix. The Kp was then determined by dividing the dilution-corrected brain concentration by the plasma concentration from each rat. A brain density of 1 gram/mL was assumed for all calculations.

[4] = target: CDK4/Cyclin D1 (Homo sapiens (Human), UniProt P11802); experiment: CDK4/CyclinD1 enzymatic activity assay (TR-FRET); assay type: biochemical; conditions: CDK4/CyclinD1 1 nM, ATP 2 mM, read-out: CDK4_D1 IC50
Summary of the method: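 Insect-cell CDK4/Cyclin D1 (1 nM) with ULight-4E-BP1 (100 nM) and 2 mM ATP in HEPES pH 7.4 buffer, preincubated 20 min with compound (9-dose, 3-fold dilutions); 10 mM MgCl2 started the reaction, run 60 min at 37 °C. EDTA/Eu-anti-phospho-4E-BP1 TR-FRET detection; IC50 from 4-parameter Hill fit.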

CDK6/Cyclin D1, sequence (Q00534 whole entry): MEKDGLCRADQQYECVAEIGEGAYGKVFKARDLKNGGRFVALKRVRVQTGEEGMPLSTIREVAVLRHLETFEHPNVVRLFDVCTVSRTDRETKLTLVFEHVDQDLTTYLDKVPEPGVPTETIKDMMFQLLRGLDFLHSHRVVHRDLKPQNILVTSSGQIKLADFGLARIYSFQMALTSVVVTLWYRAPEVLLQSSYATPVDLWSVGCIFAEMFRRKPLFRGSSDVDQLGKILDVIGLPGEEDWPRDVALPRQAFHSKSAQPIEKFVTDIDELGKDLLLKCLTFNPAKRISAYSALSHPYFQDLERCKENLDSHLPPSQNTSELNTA
CDK6/Cyclin D1, sequence (P24385 whole entry partner): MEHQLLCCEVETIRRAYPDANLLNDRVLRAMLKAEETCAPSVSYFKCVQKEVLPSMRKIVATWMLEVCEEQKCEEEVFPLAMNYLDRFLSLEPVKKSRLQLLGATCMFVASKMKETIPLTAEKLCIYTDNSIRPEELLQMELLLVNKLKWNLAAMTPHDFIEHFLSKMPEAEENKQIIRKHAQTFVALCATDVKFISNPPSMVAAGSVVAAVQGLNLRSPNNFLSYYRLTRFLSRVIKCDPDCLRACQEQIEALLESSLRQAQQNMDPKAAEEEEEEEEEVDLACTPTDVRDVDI
CDK4/Cyclin D1, sequence (P11802 whole entry): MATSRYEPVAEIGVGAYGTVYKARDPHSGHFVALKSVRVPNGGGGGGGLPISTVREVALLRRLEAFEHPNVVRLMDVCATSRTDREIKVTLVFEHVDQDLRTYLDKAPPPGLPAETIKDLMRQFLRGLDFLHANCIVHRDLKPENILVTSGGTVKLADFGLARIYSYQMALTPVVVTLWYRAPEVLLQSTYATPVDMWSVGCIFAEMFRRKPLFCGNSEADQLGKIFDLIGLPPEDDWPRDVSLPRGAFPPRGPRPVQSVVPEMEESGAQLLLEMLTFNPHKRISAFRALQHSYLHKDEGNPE
CDK4/Cyclin D1, sequence (P24385 whole entry partner): as the sequence (P24385 whole entry partner) above

Compound	IC50 ([1]; Homo sapiens, 240 h)	IC50 [2]	Kp at 4 h [3]	IC50 [4]	IC50 [1]	Kp [3]
Cc1c(-c2nc(Nc3ccc(C4CCN(C(C)C)C4)cn3)ncc2F)sc2c1C(=O)N(C)C21CC1 (stereo not drawn) [Example 16, 2′-(5-Fluoro-2-((5-(1-isopropylpyrrolidin-3-yl)pyridin-2-yl)amino)pyrimidin-4-yl)-3′,5′-dimethylspiro[cyclopropane-1,6′-thieno[2,3-c]pyrrol]-4′(5′H)-one]	20 to 200 nM	≤ 20 nM	< 1	≤ 20 nM	–	–
CN1CCC(c2ccc(Nc3ncc(F)c(-c4cc5c(s4)C4(CCCC4)N(C)C5=O)n3)nc2)CC1 [Example 20, 2′-(5-Fluoro-2-((5-(1-methylpiperidin-4-yl)pyridin-2-yl)amino)pyrimidin-4-yl)-5′-methylspiro[cyclopentane-1,6′-thieno[2,3-c]pyrrol]-4′(5′H)-one]	≤ 20 nM	≤ 20 nM	≥ 3	≤ 20 nM	–	–
CCN1CC2(C1)CN(c1ccc(Nc3ncc(F)c(-c4cc5c(s4)C4(CCCC4)N(C)C5=O)n3)nc1)C2 [Example 24]	–	≤ 20 nM	–	≤ 20 nM	20 to 200 nM	++ (a “++” denotes 1.0 ≤ Kp < 3.0)
Cc1c(-c2nc(Nc3ccc(C4CCN(C)CC4)cn3)ncc2F)sc2c1C(=O)N(C)C21CCCC1 [Example 25, 2′-(5-Fluoro-2-((5-(1-methylpiperidin-4-yl)pyridin-2-yl)amino)pyrimidin-4-yl)-3′,5′-dimethylspiro[cyclopentane-1,6′-thieno[2,3-c]pyrrol]-4′(5′H)-one]	≤ 20 nM	≤ 20 nM	1 to 3	≤ 20 nM	–	–
Cc1c(-c2nc(Nc3ccc(C4CCN(C)CC4)cn3)ncc2F)sc2c1C(=O)N(C)CC21CC1 [Example 28]	20 to 200 nM	≤ 20 nM	≥ 3	≤ 20 nM	–	–
CN1CCC(c2ccc(Nc3ncc(F)c(-c4cc5c(s4)C4(CC4)CN(C)C5=O)n3)nc2)CC1 [Example 29, 2′-(5-Fluoro-2-((5-(1-methyl-piperidin-4-yl)pyridin-2-yl)amino)pyrimidin-4-yl)-5′-methyl-5′,6′-dihydro-4′H-spiro[cyclo-propane-1,7′-thieno[3,2-c]pyridin]-4′-one]	20 to 200 nM	20 to 200 nM	1 to 3	≤ 20 nM	–	–
Cc1c(-c2nc(Nc3ccc(N4CC5(CCN(C)C5)C4)cn3)ncc2F)sc2c1C(=O)N(C)CC21CC1 [Example 35]	≤ 20 nM	≤ 20 nM	1 to 3	≤ 20 nM	–	–
CCN1C[C@H]2CN(c3ccc(Nc4ncc(F)c(-c5sc6c(c5C)C(=O)N(C)CC65CC5)n4)nc3)C[C@@H]2C1 [Example 39, 2′-(2-((5-((3aS,6aS)-5-Ethylhexahydropyrrolo[3,4-c]pyrrol-2(1H)-yl)pyridin-2-yl)amino)-5-fluoropyrimidin-4-yl)-3′,5′-dimethyl-5′,6′-dihydro-4′H-spiro[cyclopropane-1,7′-thieno[3,2-c]pyridin]-4′-one]	20 to 200 nM	≤ 20 nM	1 to 3	≤ 20 nM	–	–
CCN1CC2(C1)CN(c1ccc(Nc3ncc(C)c(-c4cc5c(s4)C4(CC4)CN(C)C5=O)n3)nc1)C2 [Example 41, 2-[2-[[5-(6-Ethyl-2,6-diazaspiro[3.3]heptan-2-yl)pyridin-2-yl]amino]-5-methylpyrimidin-4-yl]-5-methylspiro[6H-thieno[3,2-c]pyridine-7,1′-cyclopropane]-4-one]	≤ 20 nM	≤ 20 nM	< 1	≤ 20 nM	–	–
CN1CCC(c2ccc(Nc3ncc(F)c(-c4cc5c(s4)C4(CCC4)CN(C)C5=O)n3)nc2)CC1 [Example 47, 2′-(5-Fluoro-2-((5-(1-methyl-piperidin-4-yl)pyridin-2-yl)amino)pyrimidin-4-yl)-5′-methyl-5′,6′-dihydro-4′H-spiro[cyclobutane-1,7′-thieno[3,2-c]pyridin]-4′-one]	20 to 200 nM	20 to 200 nM	1 to 3	≤ 20 nM	–	–
Cc1c(-c2nc(Nc3ccc(C4CCN(C)CC4)cn3)ncc2F)sc2c1C(=O)N(C)CC21CCC1 [Example 48, 2′-(5-Fluoro-2-((5-(1-methyl-piperidin-4-yl)pyridin-2-yl)amino)pyrimidin-4-yl)-3′,5′-dimethyl-5′,6′-dihydro-4′H-spiro[cyclobutane-1,7′-thieno[3,2-c]pyridin]-4′-one]	20 to 200 nM	≤ 20 nM	≥ 3	≤ 20 nM	–	–
CN1CCN(c2ccc(Nc3ncc(F)c(-c4cc5c(s4)C4(CCC4)CN(C)C5=O)n3)nc2)CC1 [Example 50, 2′-(5-Fluoro-2-((5-(4-methyl-piperazin-1-yl)pyridin-2-yl)amino)pyrimidin-4-yl)-5′-methyl-5′,6′-dihydro-4′H-spiro[cyclobutane-1,7′-thieno[3,2-c]pyridin]-4′-one]	20 to 200 nM	≤ 20 nM	≥ 3	≤ 20 nM	–	–
Cc1c(-c2nc(Nc3ccc(N4CCC5(CCN(C)C5)C4)cn3)ncc2F)sc2c1C(=O)N(C)CC21CCC1 (stereo not drawn) [Example 55, 2′-(5-Fluoro-2-((5-(7-methyl-2,7-diazaspiro[4.4]nonan-2-yl)pyridin-2-yl)amino)pyrimidin-4-yl)-3′,5′-dimethyl-5′,6′-dihydro-4′H-spiro[cyclobutane-1,7′-thieno[3,2-c]pyridin]-4′-one]	20 to 200 nM	≤ 20 nM	< 1	≤ 20 nM	–	–
Cc1cnc(Nc2ccc(C3CCN(C)CC3)cn2)nc1-c1cc2c(s1)C1(CCC1)CN(C)C2=O [Example 59, 5-Methyl-2-[5-methyl-2-[[5-(1-methylpiperidin-4-yl)pyridin-2-yl]amino]pyrimidin-4-yl]spiro[6H-thieno[3,2-c]pyridine-7,1′-cyclobutane]-4-one]	≤ 20 nM	≤ 20 nM	1 to 3	≤ 20 nM	–	–
Cc1c(-c2nc(Nc3ccc(C4CCN(C)CC4)cn3)ncc2F)sc2c1C(=O)N(C)CC21CCCC1 [Example 63, 2′-(5-Fluoro-2-((5-(1-methyl-piperidin-4-yl)pyridin-2-yl)amino)pyrimidin-4-yl)-3′,5′-dimethyl-5′,6′-dihydro-4′H-spiro[cyclopentane-1,7′-thieno[3,2-c]pyridin]-4′-one]	20 to 200 nM	≤ 20 nM	≥ 3	≤ 20 nM	–	–
CCN1CC2(C1)CN(c1ccc(Nc3ncc(F)c(-c4ccc5c(c4)C4(CCCC4)CN(C)C5=O)n3)nc1)C2 [Example 66, 6′-(2-((5-(6-Ethyl-2,6-diazaspiro[3.3]heptan-2-yl)pyridin-2-yl)amino)-5-fluoropyrimidin-4-yl)-2′-methyl-2′,3′-dihydro-1′H-spiro[cyclopentane-1,4′-isoquinolin]-1′-one]	20 to 200 nM	20 to 200 nM	1 to 3	≤ 20 nM	–	–
CN1CCC(c2ccc(Nc3ncc(F)c(-c4ccc5c(c4)C4(CCCC4)CN(C)C5=O)n3)nc2)CC1 [Example 67, 6′-(5-Fluoro-2-((5-(1-methyl-piperidin-4-yl)pyridin-2-yl)amino)pyrimidin-4-yl)-2′-methyl-2′,3′-dihydro-1′H-spiro[cyclopentane-1,4′-isoquinolin]-1′-one]	20 to 200 nM	20 to 200 nM	≥ 3	≤ 20 nM	–	–
CCN1CCC(c2ccc(Nc3ncc(F)c(-c4sc5c(c4C)C(=O)N(C)C54CC4)n3)nc2)C1 (stereo not drawn) [Example 71, 2′-[2-[[5-(1-Ethylpyrrolidin-3-yl)pyridin-2-yl]amino]-5-fluoropyrimidin-4-yl]-3′,5′-dimethylspiro[cyclopropane-1,6′-thieno[2,3-c]pyrrole]-4′-one]	20 to 200 nM	≤ 20 nM	1 to 3	≤ 20 nM	–	–
